Experimental data as given in PubChem BioAssay AID2060349 (Molecular Pharmacology Branch, DTP, NCI, 2025).

Tested on: 762968-020-R-J2-PDC spheroids viability
Assay: Anticancer human tumor 762968-020-R-J2-PDC patient-derived colon carcinoma cell line growth inhibition [TAK]
Conditions: spheroids with HUVEC and MSC; for IC50: curve of first compound; for viability, T/C: stronger effect = lower value
Text: Combinatorial screen of targeted agents with TAK-243 and ipatasertib in multi-cell type tumor spheroids
A high-throughput screen of multi-cell type tumor spheroids was designed to identify active combinations of targeted small molecules and TAK-243 or ipatasertib. Complex spheroids include a stromal component modeled by human endothelial cells (HUVEC) and fibroblasts modeled by human mesenchymal stem cells (MSCs). The concentration ranges selected for each drug and investigational agent were based upon clinically achievable concentrations if the clinical Cmax of the agent was known.
Compounds. The drugs and investigational agents: TAK-243 (785004), ipatasertib (767898), everolimus (733504), selumetinib (741078), bortezomib (756655), trametinib (758246), ixazomib (758254), vemurafenib (761431), dabrafenib (764134), sapanisertib (764658), alpelisib (765974), and copanlisib (816437), were obtained from the National Cancer Institute (NCI) Developmental Therapeutics Program Chemical Repository. The FDA-approved anticancer drug set is available from the NCI Developmental Therapeutics Program. […] The stock solutions were prepared in dimethyl sulfoxide (DMSO, Sigma-Aldrich, St. Louis, MO, cat. D2650) at 800-fold the tested concentration and stored at -70 degrees C prior to their use. All drugs and investigational agents were tested over a range starting from a high concentration at or near the clinical Cmax and decreasing in half-log increments. If the clinical Cmax for an agent had not been determined, the highest concentration tested was 10 microM.
NCI60 Cell Culture. NCI60 cell lines were obtained from the NCI Developmental Therapeutics Program Tumor Repository. For each lot of cells, the Repository performed Applied Biosystems AmpFLSTR Identifiler testing with PCR amplification to confirm consistency with the published Identifier STR profile for each cell line. Cells were kept in continuous culture for no more than 20 passages. The optimal seeding densities for each of the cell lines at each time point assessed were determined prior to performing the concentration response studies. Briefly, the NCI60 human tumor lines were grown as monolayers in RPMI 1640 medium supplemented with 10% FBS and 2 mmol/L L-glutamine.
An additional 2 lines were from the NCI60 cell line panel including melanomas, MALME-3M and SK-MEL-2. Pooled donor human umbilical vein endothelial cells (HUVEC, Lonza, cat. CC-2519) and human mesenchymal stem cells (hMSC, Lonza, cat. PT-2501) were purchased from Lonza (Walkersville, MD).
PDMR cell lines were grown in complete medium (DC medium): Dulbecco's modified Eagle's medium (DMEM)/F12 supplemented with 5% fetal bovine serum (FBS), 2 mM L-glutamine, 100 U/mL penicillin and 100 µg/ml streptomycin, 0.4 µg/ml hydrocortisone, 10 ng/ml epidermal growth factor (EGF) recombinant human protein, 24 µg/mL adenine, and 0.1 mg/mL primocin. During culture from frozen stock vials, PDMR cells were cultured in the same medium containing 10 µM Y-27632 (see Table 3). The PDCs were cultured in complete DMEM/F12 media without 10 microM Y-27632 dihydrochloride for at least two passages prior to the screen. The pooled donor HUVEC and hMSC were cultured in endothelial cell growth medium 2 (PromoCell, Heidelberg, Germany, cat. C-22011) and mesenchymal stem cell growth medium 2 (PromoCell, cat. C-28009), respectively. For all experiments, HUVEC and hMSC were used at passages </=5.
For the pre-screen, cell seeding densities were determined from a titration spanning the range from 5,000 to 313 cells per well. The mct-spheroids including 60% malignant cells, 25% HUVEC and 15% MSC dispensed as a mixture into U-bottom Ultra-Low Attachment 384-well plates (Corning, NY)
High-throughput Drug Combination Screening.
Prior to their inoculation into 384-well plates, malignant cells, HUVEC, and hMSC were removed from T flasks using TrypLE express (Thermo Fisher Scientific, cat. 12605036) and harvested by centrifugation for 5 min at 233 x g. […]

[1] = second compound 0.3 µM, first compound 0.000316 µM
[2] = second compound 0.3 µM, first compound 0.001 µM
[3] = second compound 0.3 µM, first compound 0.00316 µM
[4] = second compound 0.3 µM, first compound 0.01 µM
[5] = second compound 0.3 µM, first compound 0.0316 µM
[6] = second compound 0.3 µM, first compound 0.1 µM
[7] = second compound 0.949 µM, first compound 0.000316 µM
[8] = second compound 0.949 µM, first compound 0.001 µM
[9] = second compound 0.949 µM, first compound 0.00316 µM
[10] = second compound 0.949 µM, first compound 0.01 µM
[11] = second compound 0.949 µM, first compound 0.0316 µM
[12] = second compound 0.949 µM, first compound 0.1 µM
[13] = second compound 3 µM, first compound 0.000316 µM
[14] = second compound 3 µM, first compound 0.001 µM
[15] = second compound 3 µM, first compound 0.00316 µM
[16] = second compound 3 µM, first compound 0.01 µM
[17] = second compound 3 µM, first compound 0.0316 µM
[18] = second compound 3 µM, first compound 0.1 µM
[19] = second compound 9.49 µM, first compound 0.000316 µM
[20] = second compound 9.49 µM, first compound 0.001 µM
[21] = second compound 9.49 µM, first compound 0.00316 µM
[22] = second compound 9.49 µM, first compound 0.01 µM
[23] = second compound 9.49 µM, first compound 0.0316 µM
[24] = second compound 9.49 µM, first compound 0.1 µM
[25] = second compound 30 µM, first compound 0.000316 µM
[26] = second compound 30 µM, first compound 0.001 µM
[27] = second compound 30 µM, first compound 0.00316 µM
[28] = second compound 30 µM, first compound 0.01 µM
[29] = second compound 30 µM, first compound 0.0316 µM
[30] = second compound 30 µM, first compound 0.1 µM
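Note: spheroids exposed to drug for 7 days before readout.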
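Throughout, for viability, T/C: 100% = DMSO vehicle control wells.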

Q: Which results are given for `CC(C)CC(NC(=O)CNC(=O)c1cc(Cl)ccc1Cl)B1OC(=O)CC(CC(=O)O)(C(=O)O)O1` (stereo not given) + CC(C)NCC(C(=O)N1CCN(c2ncnc3c2C(C)CC3O)CC1)c1ccc(Cl)cc1?
A: IC50 (second compound 0.3 µM): > 0.1 µM; IC50 (second compound 0.949 µM): > 0.1 µM; IC50 (second compound 3 µM): > 0.1 µM; IC50 (second compound 9.49 µM): > 0.1 µM; IC50 (second compound 30 µM): > 0.1 µM; viability, T/C [1]: 100%; viability, T/C [2]: 105%; viability, T/C [3]: 93.4%; viability, T/C [4]: 108%; viability, T/C [5]: 99.4%; viability, T/C [6]: 79.5%; viability, T/C [7]: 94%; viability, T/C [8]: 93.8%; viability, T/C [9]: 97.1%; viability, T/C [10]: 103%; viability, T/C [11]: 103%; viability, T/C [12]: 70.6%; viability, T/C [13]: 104%; viability, T/C [14]: 102%; viability, T/C [15]: 98.2%; viability, T/C [16]: 105%; viability, T/C [17]: 95.2%; viability, T/C [18]: 73.4%; viability, T/C [19]: 94%; viability, T/C [20]: 94.8%; viability, T/C [21]: 102%; viability, T/C [22]: 101%; viability, T/C [23]: 95.5%; viability, T/C [24]: 79.9%; viability, T/C [25]: 79%; viability, T/C [26]: 89.4%; viability, T/C [27]: 89.4%; viability, T/C [28]: 88%; viability, T/C [29]: 84.5%; viability, T/C [30]: 72.7%

Q: What does the source list for `CC(C)n1nc(-c2ccc3oc(N)nc3c2)c2c(N)ncnc21` + CC(C)NCC(C(=O)N1CCN(c2ncnc3c2C(C)CC3O)CC1)c1ccc(Cl)cc1?
A: IC50 (second compound 0.3 µM): > 0.1 µM; IC50 (second compound 0.949 µM): > 0.1 µM; IC50 (second compound 3 µM): > 0.1 µM; IC50 (second compound 9.49 µM): > 0.1 µM; IC50 (second compound 30 µM): > 0.1 µM; viability, T/C [1]: 96.5%; viability, T/C [2]: 97.1%; viability, T/C [3]: 101%; viability, T/C [4]: 91.8%; viability, T/C [5]: 87.5%; viability, T/C [6]: 72.9%; viability, T/C [7]: 96.9%; viability, T/C [8]: 96.7%; viability, T/C [9]: 99.9%; viability, T/C [10]: 99.3%; viability, T/C [11]: 87.4%; viability, T/C [12]: 73.2%; viability, T/C [13]: 99.5%; viability, T/C [14]: 95.1%; viability, T/C [15]: 103%; viability, T/C [16]: 93.4%; viability, T/C [17]: 92.3%; viability, T/C [18]: 65.7%; viability, T/C [19]: 94.4%; viability, T/C [20]: 103%; viability, T/C [21]: 98.3%; viability, T/C [22]: 93.4%; viability, T/C [23]: 79.1%; viability, T/C [24]: 63.5%; viability, T/C [25]: 83%; viability, T/C [26]: 84.2%; viability, T/C [27]: 84.3%; viability, T/C [28]: 81.9%; viability, T/C [29]: 74%; viability, T/C [30]: 63.6%

Q: For `COC1CC2CCC(C)C(O)(O2)C(=O)C(=O)N2CCCCC2C(=O)OC(C(C)CC2CCC(OCCO)C(OC)C2)CC(=O)C(C)C=C(C)C(O)C(OC)C(=O)C(C)CC(C)C=CC=CC=C1C` (stereo not given) + CC(C)NCC(C(=O)N1CCN(c2ncnc3c2C(C)CC3O)CC1)c1ccc(Cl)cc1, which IC50 (second compound 0.3 µM) is on record?
A: > 0.1 µM

Q: What about the IC50 (second compound 0.949 µM) of the same compound?
A: > 0.1 µM

Q: What about the IC50 (second compound 3 µM) of the same compound?
A: > 0.1 µM

Q: And the IC50 (second compound 9.49 µM)?
A: > 0.1 µM

Q: What about the IC50 (second compound 30 µM) of the same compound?
A: > 0.1 µM

Q: And the viability, T/C [1]?
A: 102%

Q: What about the viability, T/C [2] of the same compound?
A: 106%

Q: And the viability, T/C [3]?
A: 103%

Q: What about the viability, T/C [4] of the same compound?
A: 103%

Q: What about the viability, T/C [5] of the same compound?
A: 103%

Q: What about the viability, T/C [6] of the same compound?
A: 102%

Q: And the viability, T/C [7]?
A: 104%

Q: What about the viability, T/C [8] of the same compound?
A: 104%

Q: And the viability, T/C [9]?
A: 111%

Q: What about the viability, T/C [10] of the same compound?
A: 105%

Q: And the viability, T/C [11]?
A: 99.5%

Q: What about the viability, T/C [12] of the same compound?
A: 92.3%

Q: What about the viability, T/C [13] of the same compound?
A: 107%

Q: And the viability, T/C [14]?
A: 109%

Q: What about the viability, T/C [15] of the same compound?
A: 109%

Q: And the viability, T/C [16]?
A: 105%

Q: And the viability, T/C [17]?
A: 95.1%

Q: And the viability, T/C [18]?
A: 97.5%

Q: And the viability, T/C [19]?
A: 104%

Q: And the viability, T/C [20]?
A: 105%

Q: And the viability, T/C [21]?
A: 95.5%

Q: And the viability, T/C [22]?
A: 101%

Q: And the viability, T/C [23]?
A: 93.9%

Q: What about the viability, T/C [24] of the same compound?
A: 100%

Q: What about the viability, T/C [25] of the same compound?
A: 92.2%

Q: What about the viability, T/C [26] of the same compound?
A: 89%

Q: What about the viability, T/C [27] of the same compound?
A: 92.3%

Q: And the viability, T/C [28]?
A: 86.4%

Q: What about the viability, T/C [29] of the same compound?
A: 92.2%

Q: And the viability, T/C [30]?
A: 84.5%
